# “Also recorded” adds a separate entry of the source.
# Assays:
# [1] = system: primary mouse osteoblastic cells; test: PTH stimulation of primary mouse osteoblastic cells from bone marrow stroma; format: cell-based
# Description: (§1) To determine if PTH increases osteoblast-derived VEGF-A, in vitro PTH stimulation experiments were performed on two osteoblastic cell lines. […] Osteoblastic differentiation was observed through maturational changes in gene expression of Collagen1, Osteocalcin and Pth1r and the ability to form mineralized bone nodules. […] To test whether PTH could directly induce VEGF-A in primary mouse osteoblastic cells as it could in osteoblastic cell lines, mouse bone marrow stroma was harvested and cultured in osteoblastic maturation media prior to stimulation with PTH at specific points throughout differentiation. Again, osteoblastic differentiation was monitored through analysis of Collagen1, Osteocalcin and Pth1r expression as well as by the formation of mineralizing bone nodules.
# OBs = test: PTH stimulation of OBs in vitro; format: cell-based
# [2] = system: vessels larger than 20 um in diameter; test: Vascular micro-CT of vessels larger than 20 um in diameter; format: in vivo, mice; settings: vascular uCT, TID PTH
# From the text: FIGS. 3A-3H are graphs (FIGS. 3A-3G) and pictures (FIG. 3H) showing PTH increases bone marrow microvascularity. FIG. 3A is a graph showing histomorphometric analysis of bone marrow microvascular structures per hindlimb section (femur and tibia). FIG. 3B is a graph showing histomorphometric analysis of bone marrow vascular area, measured within a region of interest in the tibial metaphysis. FIG. 3C is a graph showing frequency of CD31+ Sca1+ bone marrow endothelial cells following TID PTH treatment. FIG. 3D is a graph showing frequency of CD31+ Sca1+ bone marrow endothelial cells isolated from CollcaPTH1R-expressing mice (TG) or wildtype littermates (WT). […]
# (§2) Methods of administration and analysis of the effects of PTH either alone or in combination are described above. To determine whether bone anabolic, HSPC-expanding regimens of PTH stimulation alter the vascular niche, mice were first treated intensively with PTH and the hindlimb BM vasculature was analyzed. PTH increased BM vascular structures per hindlimb section (femur and tibia) by histomorphometric analysis (FIG. 9A) as well as the area occupied by vasculature measured within the tibial metaphysis (FIG. 9B). To clarify whether intensive PTH treatment was vasodilatory to existing vessels or increasing de novo endothelial structures, BMCs of PTH-treated mice were analyzed phenotypically by flow cytometry (FIG. 9D). […]
# trabecular bone = test: Micro-CT analysis of trabecular bone; format: in vivo, mice
# Description: The limbs were scanned on a Viva CT 40 (Scanco Medical, Bruttisellen, Switzerland) using a 55-kVp, 145-uA current and a 300-ms integration time with a resolution of 12.5 μm. Trabecular analysis was conducted on a 1.25-mm region 50 μm above the growth plate in the femur and a 625-μm 50 um below the growth plate in the tibia. Cortical analysis was conducted 4.375 mm above/below the growth plate of the femur/tibia for a distance of 375 μm.
# Due to the dramatic induction of osteoblastic VEGF-A observed in the setting of PTH stimulation, the functional relevance of this signal in multiple aspects of BM microenvironmental activation was analyzed.
# [3] = system: osteoblastic UMR106 cells; test: In vitro PTH stimulation of osteoblastic UMR106 cells; format: cell-based
# Description: as §1
# [4] = system: CD31+ Sca1+ BM endothelial cells; test: Flow cytometry of CD31+ Sca1+ bone marrow endothelial cells; format: in vivo, mice; settings: for PTH-mediated expansion of BM endothelial cells: bevacizumab 0.7 mg/kg once per day with PTH thrice per day 10 days, vs PTH alone
# Description: (§3) All drugs were administered by intraperitoneal injection. Following 10 days of treatment, mice were sacrificed (on the morning of the eleventh day) and samples were harvested. Hindlimb bone marrow samples were used to generate the data for FIG. 8A as well as for the competitive transplantation of whole bone marrow. Hindlimb bone marrow was harvested by crushing the right hindlimb of each mouse individually using a sterile mortar and pestle in 2.5 mL phosphate buffered saline, filtered through a 40 um cell strainer and placed on ice. For flow cytometric analysis, fresh, filtered bone marrow cells were subjected to a red blood cell lysis procedure using ammonium chloride and then prepared for flow cytometry by staining with a panel of fluorescently-conjugated antibodies recognizing markers of hematopoietic stem and progenitor cells. Samples were then run on an LSR-II 12 color flow cytometer and data was analyzed using TreeStar's FlowJo software. Statistics between treatment groups were analyzed by student's T test.
# (§4) Methods of administration and analysis of the effects of PTH either alone or in combination are described above. To determine whether bone anabolic, HSPC-expanding regimens of PTH stimulation alter the vascular niche, mice were first treated intensively with PTH and the hindlimb BM vasculature was analyzed. PTH increased BM vascular structures per hindlimb section (femur and tibia) by histomorphometric analysis (FIG. 9A) as well as the area occupied by vasculature measured within the tibial metaphysis (FIG. 9B). To clarify whether intensive PTH treatment was vasodilatory to existing vessels or increasing de novo endothelial structures, BMCs of PTH-treated mice were analyzed phenotypically by flow cytometry (FIG. 9D). Intensive PTH treatment expanded populations of BM endothelial cells defined by this immunophenotyic signature (FIG. 9E). […] This expansion of small BM blood vessels was also observed in close association with both trabecular and cortical bone when CD31 immunostaining was examined in the BM (FIG. 9E). The PTH-induced increase in endothelial structures was accompanied by an increase in perivascular α smooth muscle actin (αSMA+) (FIG. 9F), indicating a concomitant increase in perivascular, HSPC supportive stromal cells.
# [5] = system: hematopoietic stem and progenitor cells (HSPCs); test: Flow cytometric analysis of bone marrow HSPCs from treated mice; format: in vivo, C57B1/6 mice; settings: for PTH-induced expansion of phenotypic and functional BM HSPCs: αVEGF in combination with PTH
# Description: as §3, with “test. […]” for “test.”
# HSPCs = test: Competitive transplantation of whole BM into lethally irradiated recipient mice; format: in vivo, C57B1/6 mice; settings: primary recipients of treated donor BM
# Description: Competitive transplantation of these cells was performed using a 4:1 donor to competitor cell ratio where the competitor was a C57B1/6 wildtype CD45.2-expressing male mouse and the recipient mice (10 mice per experimental group) were also C57B1/6 wildtype CD45.2-expressing male mice (6-8 weeks of age) that had been conditioned with a split dose of 10 Gray total body irradiation. Cell cocktails (containing the 4:1 ratio donor to competitor whole bone marrow cells) were transplanted into recipients by retro-orbital injection. Recipient mice were placed on a diet containing sulfatrim prior to the transplant and for 1 month post transplantation. Peripheral blood samples were collected at 3 weeks post transplant by bleeding from the sub-mandibular venous plexus into EDTA-containing microtainer blood tubes. Blood was then separated in order to isolate an enriched sample of mononuclear cells using PBS and dextran separation. Mononuclear cells were subjected to red blood cell lysis and then prepared for flow cytometry using a panel of antibodies recognizing B, T and myeloid cells as well as CD45.1 and CD45.2. Samples were then run on an LSR-II 12 color flow cytometer and data was analyzed using TreeStar's FlowJo software. Statistics between treatment groups were analyzed by student's T test. […]
# VEGF-A = test: Immunohistochemical staining for VEGF-A in hindlimb BM; format: in vivo; settings: PTH-treated mice vs vehicle, endosteal/bone surfaces
# From the text: Osteoblasts (OBs) and the bone marrow (BM) vasculature constitute hematopoietic stem and progenitor cell (HSPC) niches. OB-activation by Parathyroid Hormone (PTH) expands HSPCs through the BM microenvironment. Activation of osteoblasts through systemic PTH treatment or expression of a constitutively active PTH1 receptor (PTH1R) increases trabecular bone and expands HSPCs in the bone marrow. To test if the vasculature is modulated by PTH, it was first assessed whether PTH expands BM endothelial structures. In a murine model of HSPC-expanding PTH treatment, PTH increased microvessels and vascular area in hindlimb histology (FIG. 3A, 3B and 3E-3H). […] To determine if PTH expands BM vasculature by increasing proangiogenic signals, VEGF-A was analyzed in PTH-stimulated BM. […] To establish whether PTH directly stimulates osteoblastic Vegfa expression, mouse calvarial MC3T3 cells were treated with PTH at various stages of osteoblastic maturation. […] The magnitude of induction increased throughout osteoblastic differentiation. […] Bevacizumab blunted PTH-mediated expansion of phenotypic BM ECs when bevacizumab and PTH treatment was compared to PTH alone.
# To determine whether the PTH-dependent increase in BM microvascularity is due to local induction of proangiogenic signals, immunostaining for candidate angiogenic factors already implicated in marrow endothelial signaling was performed.
# BM vasculature = test: Histomorphometric analysis of hindlimb bone marrow vasculature after PTH treatment; format: in vivo, mice; settings: PTH treatment vs vehicle
# From the text: Osteoblasts (OBs) and the bone marrow (BM) vasculature constitute hematopoietic stem and progenitor cell (HSPC) niches. OB-activation by Parathyroid Hormone (PTH) expands HSPCs through the BM microenvironment. Activation of osteoblasts through systemic PTH treatment or expression of a constitutively active PTH1 receptor (PTH1R) increases trabecular bone and expands HSPCs in the bone marrow. To test if the vasculature is modulated by PTH, it was first assessed whether PTH expands BM endothelial structures. In a murine model of HSPC-expanding PTH treatment, PTH increased microvessels and vascular area in hindlimb histology (FIG. 3A, 3B and 3E-3H). […] To determine if PTH expands BM vasculature by increasing proangiogenic signals, VEGF-A was analyzed in PTH-stimulated BM. […]
# as §2, with “9B).” for “9B). To clarify whether intensive PTH treatment was vasodilatory to existing vessels or increasing de novo endothelial structures, BMCs of PTH-treated mice were analyzed phenotypically by flow cytometry (FIG. 9D).”
# osteolineage cells = test: Angiogenic signals (FGF2, Vegfa) in marrow and osteolineage cells of treated mice; format: in vivo
# Description: FGF2 is another angiogenic signal within the BM. In contrast to the effects of VEGF-A on endothelial permeability and migration, FGF2 enforces vascular stability. To determine whether osteoblastic activation by PTH can remodel the BM vasculature through the action of multiple angiogenic signals or VEGF-A alone, FGF2 changes in the marrow of PTH-stimulated mice were analyzed. Indeed, increased endosteal-associated FGF2 in hindlimb BM of mice treated with TID PTH, with a localization pattern similar to that of VEGF was observed. Moreover, FGF2 expression levels were increased within osteolineage cells isolated from TID PTH mice (FIG. 10E).
# Immunoreactive VEGF-A and FGF2 were both very high along endosteal surfaces of the hindlimb BM cavity following PTH as compared to control treatment.
# [6] = system: BM blood vessels and perivascular stromal cells; test: CD31 and αSMA immunostaining in the BM; format: in vivo, mice; settings: PTH
# Description: as §4
# [7] = system: mouse calvarial MC3T3 cells; test: In vitro PTH stimulation of MC3T3 cells during osteoblastic differentiation; format: cell-based
# From the text: Osteoblasts (OBs) and the bone marrow (BM) vasculature constitute hematopoietic stem and progenitor cell (HSPC) niches. OB-activation by Parathyroid Hormone (PTH) expands HSPCs through the BM microenvironment. Activation of osteoblasts through systemic PTH treatment or expression of a constitutively active PTH1 receptor (PTH1R) increases trabecular bone and expands HSPCs in the bone marrow. To test if the vasculature is modulated by PTH, it was first assessed whether PTH expands BM endothelial structures. In a murine model of HSPC-expanding PTH treatment, PTH increased microvessels and vascular area in hindlimb histology (FIG. 3A, 3B and 3E-3H). […] To determine if PTH expands BM vasculature by increasing proangiogenic signals, VEGF-A was analyzed in PTH-stimulated BM. […] To establish whether PTH directly stimulates osteoblastic Vegfa expression, mouse calvarial MC3T3 cells were treated with PTH at various stages of osteoblastic maturation. […] The magnitude of induction increased throughout osteoblastic differentiation. […]
# To determine if PTH increases osteoblast-derived VEGF-A, in vitro PTH stimulation experiments were performed on two osteoblastic cell lines. […] Again, osteoblastic differentiation was monitored through analysis of Collagen1, Osteocalcin and Pth1r expression as well as by the formation of mineralizing bone nodules.
# CD105+ mesenchymal cells = test: Flow cytometry of CD105+/Endoglin+ CD45− bone marrow mesenchymal cells; format: in vivo, C57B1/6 mice; settings: bevacizumab with PTH(1-34) or vehicle, 10 days
# Description: When administered to a live animal, pimonidazole-HCl precipitates in cells containing<14 μM oxygen or pO2<10 mm Hg and can be detected immunohistochemically. […] FIG. 7A is a schematic of VEGF-blocking experiment. […] FIG. 7B is a graph showing frequency of CD31+ Sca1+ bone marrow endothelial cells isolated from C57B1/6 mice treated as indicated. FIG. 7C is a graph showing frequency of
# CD105+/Endoglin+ CD45− non-hematopoietic bone marrow mesenchymal cells isolated from C57B1/6 mice treated as indicated. *P<0.05, **P<0.01
# LSKs = test: Growth and survival of LSKs cultured in cytokine-supplemented media; format: cell-based, mice; settings: increasing concentrations of αVEGF
# [8] = αVEGF during TID PTH, effect on the effects of PTH
# [9] = αVEGF, baseline or PTH-enhanced
substance,measurement,setting,value
Parathyroid hormone (1-34) [PTH],soluble VEGF-A protein secreted into the culture media,[1]; PTH treatment,a significant effect of PTH treatment was not detected
same,Vegfa mRNA levels,[1]; as early as four hours post PTH treatment of maturing osteoblastic cells,increased
same,FGF2 in OBs in vitro,OBs,simultaneously increased
same,expression of VEGF-A in OBs in vitro,OBs,increased
same,"vessel frequency, density or volume",[2],no increase
same,trabecular bone,trabecular bone; systemic PTH treatment,increases
same,VEGF-A protein secretion,[3]; by six hours post PTH-stimulation,increase
same,Vegfa expression,"[3]; two hours post PTH stimulation, n=3, p=0.0055",8.500±1.320 fold change above baseline
same,CD31+ Sca1+ BM endothelial cells,[4]; PTH treatment vs vehicle,increased; also recorded: expanded
same,HSPCs in the bone marrow,[5]; systemic PTH treatment,expands
same,multilineage hematopoietic reconstitution,HSPCs,transiently increased
same,VEGF-A protein staining in BM,VEGF-A,increased along bone surfaces; also recorded: strongly increased; also recorded: global increase
same,BM microvessels / vascular structures per hindlimb section (femur and tibia),BM vasculature,increased
same,vascular area (tibial metaphysis),BM vasculature,increased
same,endosteal-associated FGF2 in hindlimb BM,osteolineage cells; TID PTH,increased
same,FGF2 expression levels within osteolineage cells,osteolineage cells; cells isolated from TID PTH mice,increases
same,Vegfa expression in osteolineage bone-associated cells,osteolineage cells; cells isolated from mice treated with PTH,increases
same,perivascular α smooth muscle actin (αSMA+),[6],increase
same,small BM blood vessels (CD31 immunostaining) associated with trabecular and cortical bone,[6],expansion
same,secreted VEGF-A protein,[7],increased; also recorded: robust
same,Vegfa expression,[7]; throughout osteoblastic differentiation,strongly induced; also recorded: induced
bevacizumab: anti-VEGF-A monoclonal antibody bevacizumab (referred to as αVEGF); humanized monoclonal antibody,connectivity density of the trabecular bone,trabecular bone; [8],augment
same,number of bony trabeculae,trabecular bone; [8],augment
same,bone anabolic action of PTH,trabecular bone; αVEGF in combination with PTH,without blocking
same,trabecular bone volume,trabecular bone; [9],did not significantly alter
same,trabecular spacing,trabecular bone; [9],did not significantly alter
same,PTH-mediated expansion of BM endothelial cells,[4]; listed as Bevacizumab,blunted
same,PTH-mediated expansion of BM endothelial cells,[4]; listed as anti-VEGF therapy,blocks
same,PTH-mediated expansion of BM endothelial cells,[4]; listed as αVEGF,significantly decreased
same,"PTH-mediated expansion of HSCs (Flt3−, CD48−, CD150+ LSKs)",[5]; VEGF inhibition with PTH,did not diminish
same,HSPCs,[5]; anti-VEGF therapy with or without PTH,expands
same,PTH-induced expansion of multipotent progenitor/short term repopulating HSPCs (MPP/ST-HSPCs),[5]; bevacizumab and PTH vs PTH alone,augmented
same,PTH-induced expansion of phenotypic and functional BM HSPCs,[5],further increased
same,PTH-induced expansion of phenotypic and functional BM HSPCs,[5]; listed as anti-VEGF-A treatment,augments
same,"Flt3+, CD48−, CD150− LSKs",[5]; αVEGF in the setting of PTH,trend towards an increase
same,"hematopoietic lineage−, Sca1+, c-kit+ cells (LSKs)",[5]; αVEGF in the setting of PTH,trend towards an increase
same,"Flt3+, CD48−, CD150− LSKs",[5]; αVEGF treatment alone,expanded
same,"hematopoietic lineage−, Sca1+, c-kit+ cells (LSKs)",[5]; αVEGF treatment alone,expanded
same,CD105+ mesenchymal cells,CD105+ mesenchymal cells,does not reduce
same,growth and survival of LSKs,LSKs,not significantly affected

# Source: patent US20150273055A1, “METHODS AND COMPOSITIONS FOR EXPANDING HEMATOPOIETIC STEM AND PROGENITOR CELLS” (UNIVERSITY OF ROCHESTER, priority 2012, published 2015)
